This is an account of results in ChEMBL document CHEMBL3392989 (Bioorg Med Chem Lett, 2015).

Structures are written as SMILES. Activity calls are given as the source filed them. No cut-off for these calls is given here.

The IC50 is the point on the concentration scale where inhibition reaches its midpoint. High values mean a need for much substance, low ones inhibition by little substance. As a reminder, the inhibition is how much of the control response was suppressed.

The target in one data set is Cholinesterase (Equus caballus, UniProt P81908). Nature of the data set: Inhibition of horse serum BuChE pre-incubated for 20 mins before […] substrate addition by Ellman's assay. In general terms: In Ellman's method for cholinesterases, released thiocholine reacts with DTNB.
Chain of Cholinesterase (P81908 whole entry): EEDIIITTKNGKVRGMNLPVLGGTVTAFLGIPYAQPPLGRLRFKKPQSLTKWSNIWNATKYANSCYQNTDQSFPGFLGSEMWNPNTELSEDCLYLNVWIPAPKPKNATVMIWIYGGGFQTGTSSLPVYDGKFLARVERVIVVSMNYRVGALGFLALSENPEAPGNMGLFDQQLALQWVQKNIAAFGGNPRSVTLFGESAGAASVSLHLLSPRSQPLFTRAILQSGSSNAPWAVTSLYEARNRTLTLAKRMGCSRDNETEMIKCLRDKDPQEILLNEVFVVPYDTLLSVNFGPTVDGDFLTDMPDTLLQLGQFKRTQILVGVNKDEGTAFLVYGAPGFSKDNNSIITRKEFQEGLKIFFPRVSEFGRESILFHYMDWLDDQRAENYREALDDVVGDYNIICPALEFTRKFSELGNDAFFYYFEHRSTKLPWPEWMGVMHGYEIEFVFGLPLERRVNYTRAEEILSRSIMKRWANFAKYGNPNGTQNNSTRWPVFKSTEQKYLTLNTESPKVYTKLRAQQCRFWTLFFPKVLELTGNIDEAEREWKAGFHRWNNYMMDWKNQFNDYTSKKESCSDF
Data set [1] concerns the target Amyloid-beta precursor protein (Homo sapiens) (UniProt P05067). Briefly: Inhibition of Amyloid beta (1 to 42) (unknown origin) self aggregation at 5 uM pre-incubated for 24 hrs by Thioflavin T-based fluorometric assay.
Data set [2] shares this target. Nature of the data set: Inhibition of Amyloid beta (1 to 42) (unknown origin) self aggregation at 50 uM pre-incubated for 24 hrs by Thioflavin T-based fluorometric assay.
The target of data set [3] is Beta-secretase 1 (Homo sapiens) (UniProt P56817). Nature of the data set: Inhibition of BACE1 (unknown origin) at 10 uM using ([Asn670, Lue671]-Amyloid beta/A4 precursor protein 770 fragment 667-676-(2,4dinitrophenyl) Lys-Arg-Arg amide trifluoroacetate salt substrate incubated for 2 hrs by FRET assay.
Chain of Beta-secretase 1 (Homo sapiens) (P56817 whole entry, the tested form may be a part): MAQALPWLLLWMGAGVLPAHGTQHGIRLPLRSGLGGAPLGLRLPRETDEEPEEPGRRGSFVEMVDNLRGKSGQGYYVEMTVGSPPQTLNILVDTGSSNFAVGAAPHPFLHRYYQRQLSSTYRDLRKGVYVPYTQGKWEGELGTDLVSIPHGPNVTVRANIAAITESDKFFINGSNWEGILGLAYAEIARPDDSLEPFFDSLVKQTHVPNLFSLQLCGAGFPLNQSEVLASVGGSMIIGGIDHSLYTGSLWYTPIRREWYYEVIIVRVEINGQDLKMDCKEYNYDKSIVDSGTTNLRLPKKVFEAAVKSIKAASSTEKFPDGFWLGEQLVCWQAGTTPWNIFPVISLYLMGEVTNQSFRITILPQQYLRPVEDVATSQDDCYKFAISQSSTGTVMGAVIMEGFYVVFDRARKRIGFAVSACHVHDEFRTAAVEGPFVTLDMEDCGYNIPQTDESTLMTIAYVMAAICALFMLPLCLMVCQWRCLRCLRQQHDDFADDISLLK
The subject of data set [4] is HT-22. Nature of the data set: Cytotoxicity against mouse HT22 cells assessed as reduction in cell viability at 100 uM after 24 hrs by MTT assay. It counts as cell-based. As to conditions: ht-22, 24 h. (Tetrazolium dyes change colour on reduction, which living cells bring about.)
The test system of data set [5] is HT-22. Nature of the data set: Cytoprotective activity in mouse HT22 cells assessed as reduction in glutamate-induced cytotoxicity at 0.3 to 10 uM pre-incubated for 30 mins before incubation with glutamate for 24 hrs by MTT assay. It counts as functional, cell-based.
Another data set has as its target Acetylcholinesterase (Electrophorus electricus, UniProt O42275).
Data set [6] concerns HT-22. Nature of the data set: Cytotoxicity against mouse HT22 cells assessed as reduction in cell viability at 30 to 100 uM after 24 hrs by MTT assay. The data set is classed as cell-based. As to conditions: ht-22, 24 h.
For data set [7], the system named is HT-22. Briefly: Cytoprotective activity in mouse HT22 cells assessed as reduction in glutamate-induced cytotoxicity at 3 uM pre-incubated for 30 mins before incubation with glutamate for 24 hrs by MTT assay. It counts as functional, cell-based.
Data set [8] deals with HT-22. Briefly: Cytotoxicity against mouse HT22 cells assessed as reduction in cell viability at 10 to 100 uM after 24 hrs by MTT assay. The data set is classed as cell-based. As to conditions: ht-22, 24 h.
For data set [9], the system named is HT-22. Briefly: Cytotoxicity against mouse HT22 cells assessed as reduction in cell viability at 10 uM after 24 hrs by MTT assay. It counts as cell-based. As to conditions: ht-22, 24 h.
In data set [10] the test system is HT-22. Briefly: Cytoprotective activity in mouse HT22 cells assessed as reduction in glutamate-induced cytotoxicity at 10 uM pre-incubated for 30 mins before incubation with glutamate for 24 hrs by MTT assay. It counts as functional, cell-based.
The nature of data set [11]: Metal chelating activity assessed as copper chelation activity by measuring barhochromic shift at 40 uM using CuCl2 UV-vis spectroscopy. The data set is classed as physicochemical.

Chain of Amyloid-beta precursor protein (Homo sapiens) (P05067 whole entry): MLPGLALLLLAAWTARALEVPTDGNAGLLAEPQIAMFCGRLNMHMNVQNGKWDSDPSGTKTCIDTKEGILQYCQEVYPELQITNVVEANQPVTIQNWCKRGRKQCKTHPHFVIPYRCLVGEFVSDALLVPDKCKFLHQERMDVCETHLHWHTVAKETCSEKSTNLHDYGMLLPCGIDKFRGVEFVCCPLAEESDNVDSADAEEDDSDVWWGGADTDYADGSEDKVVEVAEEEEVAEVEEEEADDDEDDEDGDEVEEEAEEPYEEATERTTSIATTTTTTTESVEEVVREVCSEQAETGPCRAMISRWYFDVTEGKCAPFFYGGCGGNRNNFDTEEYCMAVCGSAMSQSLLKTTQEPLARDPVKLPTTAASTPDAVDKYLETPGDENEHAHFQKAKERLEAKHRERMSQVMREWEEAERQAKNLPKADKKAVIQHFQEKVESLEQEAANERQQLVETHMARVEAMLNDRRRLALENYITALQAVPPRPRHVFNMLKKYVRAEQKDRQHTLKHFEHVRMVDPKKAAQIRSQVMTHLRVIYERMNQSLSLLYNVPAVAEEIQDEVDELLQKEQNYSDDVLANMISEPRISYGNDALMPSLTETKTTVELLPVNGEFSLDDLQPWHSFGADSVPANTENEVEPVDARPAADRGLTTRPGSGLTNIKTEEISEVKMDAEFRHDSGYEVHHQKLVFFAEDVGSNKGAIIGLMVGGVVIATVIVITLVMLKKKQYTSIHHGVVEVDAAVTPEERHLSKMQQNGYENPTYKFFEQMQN
Chain of Acetylcholinesterase (O42275 whole entry): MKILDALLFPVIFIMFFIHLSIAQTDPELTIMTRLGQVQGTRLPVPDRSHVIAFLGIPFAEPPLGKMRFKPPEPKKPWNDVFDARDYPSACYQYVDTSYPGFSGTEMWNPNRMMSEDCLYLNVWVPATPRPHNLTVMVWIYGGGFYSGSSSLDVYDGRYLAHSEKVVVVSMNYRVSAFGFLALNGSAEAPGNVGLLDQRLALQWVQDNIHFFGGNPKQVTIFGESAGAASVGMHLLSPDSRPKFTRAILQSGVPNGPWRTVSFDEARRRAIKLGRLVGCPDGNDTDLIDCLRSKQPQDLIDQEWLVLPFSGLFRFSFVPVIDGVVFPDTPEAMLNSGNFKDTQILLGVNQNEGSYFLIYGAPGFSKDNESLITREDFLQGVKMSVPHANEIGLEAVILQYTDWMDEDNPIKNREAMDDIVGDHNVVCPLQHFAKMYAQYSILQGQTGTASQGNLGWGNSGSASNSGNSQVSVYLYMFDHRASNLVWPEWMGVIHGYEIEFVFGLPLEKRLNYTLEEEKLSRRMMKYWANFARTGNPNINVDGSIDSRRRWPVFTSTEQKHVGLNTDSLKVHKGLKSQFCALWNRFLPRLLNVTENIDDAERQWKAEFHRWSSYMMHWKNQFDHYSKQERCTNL
Description for Acetylcholinesterase: Inhibition of electric eel AChE pre-incubated for 20 mins before acetylcholine iodide substrate addition by Ellman's assay

As for `COc1cc(/C=C/C(=O)NCC(O)CNc2c3c(nc4cc(Cl)ccc24)CCCC3)ccc1O` (stereo not given), the IC50 is 0.71 µM on Cholinesterase and 0.02 µM against Acetylcholinesterase. The results for the inhibition in [1], in data set [2] and in data set [3] were 13.5%, 48.9% and 2.57%, respectively. For the same molecule, the Activity entry with HT-22 [4] is reported as “Toxic”. The result in the data set on HT-22 [5] was inactive.
With `O=C(CCCCC1CCSS1)NCC(O)CNc1c2c(nc3ccccc13)CCCC2` (stereo not given), the figures for the IC50 on Cholinesterase and against Acetylcholinesterase were 1.18 µM and 0.1 µM, respectively. Also, the inhibition in data set [3] is 24.8%. Also, the Activity entry with HT-22 [6] is given as “Toxic”. Moreover, the result in the data set with HT-22 [7] was Active.
For `COc1cc(/C=C/C(=O)NCC(O)CNc2c3c(nc4ccccc24)CCCC3)ccc1O` (stereo not given), the IC50 came out at 0.31 µM against Cholinesterase and 0.03 µM against Acetylcholinesterase. The inhibition in data set [1] is 8.4%; in [2], 46.3%; in [3], 15%. Also, the Activity entry in the data set with HT-22 [8] is on record as “Non-toxic”. In the data set on HT-22 [5], the outcome was inactive.
As for `O=C(CCCCC1CCSS1)NCC(O)CNc1c2c(nc3cc(Cl)ccc13)CCCC2` (stereo not given), the IC50 worked out at 1.03 µM on Cholinesterase and 0.04 µM against Acetylcholinesterase. The inhibition in data set [3] was 46.8%. The Activity result in the data set with HT-22 [6] and in the data set on HT-22 [9] was “Toxic” in each case. The outcome in the data set on HT-22 [7] was Active.
As for `O=C(/C=C/c1ccc(O)c(O)c1)NCC(O)CNc1c2c(nc3cc(Cl)ccc13)CCCC2` (stereo not given), the IC50 against Cholinesterase came out at 0.36 µM; at Acetylcholinesterase it was 0.15 µM. Also, the inhibition in data set [1] is 9.2%; in data set [2], 53.2%; in data set [3], 13.1%. The Activity entry was “Toxic” with HT-22 [4] and “Active” in [11]. The result in the data set on HT-22 [10] was Active.
Regarding `O=C(/C=C/c1ccc(O)c(O)c1)NCC(O)CNc1c2c(nc3ccccc13)CCCC2` (stereo not given), the IC50 against Cholinesterase came out at 1.01 µM; at Acetylcholinesterase it was 0.7 µM. Moreover, the figures for the inhibition in data set [1], in [2] and in [3] were 12.8%, 49.8% and 10.5%, respectively. Moreover, in the data set with HT-22 [8], the Activity entry is recorded as “Non-toxic”. In the data set on HT-22 [5], the outcome was inactive.
